Measurements as given in patent US8497278B2, “Imidazo[1,2-a]pyridine compounds” (priority 2008, dated 2013).

Assays:
[1] = biological target: T1, α2 subtype containing GABA-A receptors (Homo sapiens, UniProt P18507+P47869); assay: Two-electrode voltage clamp electrophysiology in Xenopus oocytes, potentiation of GABA EC20 response, α2; assay type: cell-based; conditions: 100 nM compound; for activation at 0.1 µM: read-out: Percentage of potentiation alpha2
T1 construct: expressed in transfected cells; host or cells: Xenopus laevis oocytes, cRNA injected
Description: (§1) Electrophysiology protocol: Oocytes were prepared from adult female Xenopus laevis frogs. cRNA encoding human α1, α2, α3, α5, β3 and γ2L GABAA receptor subunits was injected into the cytoplasm of stage 5 or 6 oocytes using the Robocyte Robot (Multi Channel Systems, Reutlingen, Germany). Two-electrode voltage clamp recordings were made in 96-well plates using the Robocyte Robot. Oocytes were impaled using recording heads with two glass electrodes containing 1.5 M potassium acetate and 0.5 M KCl and held at a membrane potential of −80 mV. Oocytes were continually perfused with a ND96 solution (96 mM NaCl, 2 mM KCl, 0.1 mM CaCl2, and 5 mM HEPES, pH 7.5) using a Gilson 222 XL Liquid Handler and Gilson Minipuls 3 Peristaltic Pump (Gilson Medical Electronics, Middleton, Wis., USA). The protocol consisted of three 20-s applications of GABA that gave a 20% of the maximum response (EC20: 60 μM) to allow for headroom to determine a baseline GABA response. To assess the potentiation, oocytes were first exposed to a single 1 μM chlordiazepoxide (CDP) as a potentiation standard. Oocytes with insufficient expression levels (currents below threshold) or insufficient γ2L subunit incorporation (judged by rapid desensitization upon GABA application, or by insufficient potentiation by CDP) were not included in analysis. Following this control application, a given oocyte was exposed to test compounds at 100 nM concentrations. Only one concentration of one compound was tested per oocyte. […] One skilled in the art will recognize that subtypes contribute to the effects of GABA-A modulators. Such that compounds favoring different subtypes can have different therapeutic effects. The magnitude of modulation, for example, partial modulators can influence the effects in vivo. “++” indicates a greater modulation that “+” so that at any given subtype “++” inducates a greater amount of modulation for that subtype. In some embodiments, modulation favoring alpha 1 relative to alpha2 and/or alpha 3 can have sedative hypnotic effects. In other embodiments, compounds with reduced selectivity of alpha 1 can express anxiolytic effects with less sedation. Compounds with selectivity for alpha 5 can have memory/cognition enhancing effects.

[2] = test system: central benzodiazepine receptors; assay: Central benzodiazepine receptor binding (test of Speth et al.); conditions: 1000 nM of the compound
In short: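 Radioligand binding by the Speth et al. method. Specific binding is total minus nonspecific binding, the latter measured with excess unlabelled ligand. Compounds screened at 1.0E-09, 1.0E-07 and 1.0E-05 M in single determination; values given as percent inhibition at 1000 nM compound.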

[3] = biological target: T2, α1 subtype containing GABA-A receptors (Homo sapiens, UniProt P14867+P18507); assay: Two-electrode voltage clamp electrophysiology in Xenopus oocytes, potentiation of GABA EC20 response, α1; assay type: cell-based; conditions: 100 nM compound; for activation at 0.1 µM: read-out: Percentage of potentiation alpha1
T2 construct: expressed in transfected cells; host or cells: Xenopus laevis oocytes, cRNA injected
Description: as §1

T1 sequence (P47869 29-451): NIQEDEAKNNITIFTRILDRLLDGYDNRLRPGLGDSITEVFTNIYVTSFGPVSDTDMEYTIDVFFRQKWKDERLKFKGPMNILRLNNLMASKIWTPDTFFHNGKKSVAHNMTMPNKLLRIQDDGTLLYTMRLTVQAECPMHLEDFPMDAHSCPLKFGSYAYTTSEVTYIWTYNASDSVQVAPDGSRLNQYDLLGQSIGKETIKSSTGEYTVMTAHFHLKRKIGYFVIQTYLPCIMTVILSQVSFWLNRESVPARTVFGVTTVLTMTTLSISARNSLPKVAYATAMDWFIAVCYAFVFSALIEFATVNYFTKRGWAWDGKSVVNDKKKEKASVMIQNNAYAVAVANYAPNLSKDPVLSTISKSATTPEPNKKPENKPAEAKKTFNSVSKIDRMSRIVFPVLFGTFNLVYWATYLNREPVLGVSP
T1 sequence (P28472 26-473 partner): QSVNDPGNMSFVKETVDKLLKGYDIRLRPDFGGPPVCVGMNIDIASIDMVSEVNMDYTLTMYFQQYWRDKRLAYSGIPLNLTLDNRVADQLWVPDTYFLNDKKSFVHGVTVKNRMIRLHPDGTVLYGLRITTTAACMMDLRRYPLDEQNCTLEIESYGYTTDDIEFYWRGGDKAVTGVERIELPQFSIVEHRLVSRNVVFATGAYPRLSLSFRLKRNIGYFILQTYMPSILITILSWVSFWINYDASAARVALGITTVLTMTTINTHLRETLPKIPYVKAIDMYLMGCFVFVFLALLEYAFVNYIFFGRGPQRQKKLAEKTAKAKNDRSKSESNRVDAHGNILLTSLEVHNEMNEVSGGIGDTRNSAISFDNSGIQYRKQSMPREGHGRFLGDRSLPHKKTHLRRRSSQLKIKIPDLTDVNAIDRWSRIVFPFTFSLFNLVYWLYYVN
T1 sequence (P18507 40-475): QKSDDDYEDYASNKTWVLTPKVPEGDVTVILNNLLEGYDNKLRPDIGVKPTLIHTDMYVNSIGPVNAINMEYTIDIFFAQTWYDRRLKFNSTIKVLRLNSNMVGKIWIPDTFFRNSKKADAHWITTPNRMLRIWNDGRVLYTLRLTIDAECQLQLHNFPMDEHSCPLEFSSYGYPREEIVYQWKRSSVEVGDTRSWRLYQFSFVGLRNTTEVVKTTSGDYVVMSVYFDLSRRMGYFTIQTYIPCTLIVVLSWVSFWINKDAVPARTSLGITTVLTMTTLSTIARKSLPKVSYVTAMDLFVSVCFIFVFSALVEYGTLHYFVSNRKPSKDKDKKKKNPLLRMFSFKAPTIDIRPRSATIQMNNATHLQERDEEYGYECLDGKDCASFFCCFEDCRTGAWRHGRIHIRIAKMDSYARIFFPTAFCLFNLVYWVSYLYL
T2 sequence (P14867 28-456): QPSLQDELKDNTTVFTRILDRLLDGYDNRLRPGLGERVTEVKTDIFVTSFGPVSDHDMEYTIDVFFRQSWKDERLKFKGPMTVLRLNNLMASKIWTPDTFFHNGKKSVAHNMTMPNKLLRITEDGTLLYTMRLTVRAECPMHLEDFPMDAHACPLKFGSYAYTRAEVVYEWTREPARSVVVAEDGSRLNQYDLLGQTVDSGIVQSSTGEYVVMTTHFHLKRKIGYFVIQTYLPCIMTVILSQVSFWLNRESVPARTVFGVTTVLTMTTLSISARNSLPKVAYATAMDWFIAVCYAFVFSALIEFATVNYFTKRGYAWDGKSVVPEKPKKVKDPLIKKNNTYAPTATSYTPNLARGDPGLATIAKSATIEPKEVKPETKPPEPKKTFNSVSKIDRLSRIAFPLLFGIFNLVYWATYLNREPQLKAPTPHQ
T2 sequence (P28472 26-473 partner): as the sequence (P28472 26-473 partner) above
T2 sequence (P18507 40-475): as the sequence (P18507 40-475) above

With `Cc1ccc(-c2nc3ccc(C)cn3c2Cn2ccnc2C)cc1` [Compound 2, 6-Methyl-3-((2-methyl-1H-imidazol-1-yl)methyl)-2-p-tolylH-imidazo[1,2-a]pyridine] the “Percentage of potentiation alpha2” value [1] was “+ (percentage of potentiation is greater than or equal to 10% but less than 50% in the presence of 100 nM of the compound)”, the “% Inhibition at 1000 nM for CBZD” value [2] was “++ (percentage of inhibition of central BZD site binding is greater than 80% in the presence of 1000 nM of the compound)” and the “Percentage of potentiation alpha1” value [3] was “+ (percentage of potentiation is greater than or equal to 10% but less than 50% in the presence of 100 nM of the compound)”.

For `CCc1nccn1Cc1c(-c2ccc(C)cc2)nc2ccc(C)cn12` [Compound 4, 3-((2-Ethyl-1H-imidazol-1-yl)methyl)-6-methyl-2-p-tolylH-imidazo[1,2-a]pyridine], the “Percentage of potentiation alpha2” value [1] was 0 (percentage of potentiation is between about 10% to about −10%), the “% Inhibition at 1000 nM for CBZD” value [2] was “++ (percentage of inhibition of central BZD site binding is greater than 80% in the presence of 1000 nM of the compound)” and the “Percentage of potentiation alpha1” value [3] was “+ (percentage of potentiation is greater than or equal to 10% but less than 50% in the presence of 100 nM of the compound)”.

For `Cc1ccc(-c2nc3ccc(C)cn3c2Cn2ccnn2)cc1` [Compound 6, 3-((1H-1,2,3-triazol-1-yl)methyl)-6-methyl-2-p-tolylH-imidazo[1,2-a]pyridine], the “Percentage of potentiation alpha2” value [1] was “+ (percentage of potentiation is greater than or equal to 10% but less than 50% in the presence of 100 nM of the compound)”, the “% Inhibition at 1000 nM for CBZD” value [2] was “++ (percentage of inhibition of central BZD site binding is greater than 80% in the presence of 1000 nM of the compound)” and the “Percentage of potentiation alpha1” value [3] was “+ (percentage of potentiation is greater than or equal to 10% but less than 50% in the presence of 100 nM of the compound)”.

In the case of `Cc1ccc(-c2nc3ccc(C)cn3c2Cn2cncn2)cc1` [Compound 7, 3-((1H-1,2,4-triazol-1-yl)methyl)-6-methyl-2-p-tolylH-imidazo[1,2-a]pyridine], the “Percentage of potentiation alpha2” value [1] is reported as “+ (percentage of potentiation is greater than or equal to 10% but less than 50% in the presence of 100 nM of the compound)”, the “% Inhibition at 1000 nM for CBZD” value [2] is reported as “++ (percentage of inhibition of central BZD site binding is greater than 80% in the presence of 1000 nM of the compound)” and the “Percentage of potentiation alpha1” value [3] is reported as “+ (percentage of potentiation is greater than or equal to 10% but less than 50% in the presence of 100 nM of the compound)”.

In the case of `Cc1ccc(-c2nc3ccc(C)cn3c2Cn2cccn2)cc1` [Compound 8, 3-((1H-pyrazol-1-yl)methyl)-6-methyl-2-p-tolylH-imidazo[1,2-a]pyridine], the “Percentage of potentiation alpha2” value [1] is reported as “+ (percentage of potentiation is greater than or equal to 10% but less than 50% in the presence of 100 nM of the compound)”, the “% Inhibition at 1000 nM for CBZD” value [2] is reported as “++ (percentage of inhibition of central BZD site binding is greater than 80% in the presence of 1000 nM of the compound)” and the “Percentage of potentiation alpha1” value [3] is reported as “++ (percentage of potentiation is greater than or equal to 50% in the presence of 100 nM of the compound)”.

With `Cc1ccc(-c2nc3ccc(C)cn3c2Cn2nc(C)cc2C)cc1` [Compound 9, 6-Methyl-3-((3,5-dimethyl-1H-pyrazol-1-yl)methyl)-2-p-tolylH-imidazo[1,2-a]pyridine] the “Percentage of potentiation alpha2” value [1] was “+ (percentage of potentiation is greater than or equal to 10% but less than 50% in the presence of 100 nM of the compound)”, the “% Inhibition at 1000 nM for CBZD” value [2] was “++ (percentage of inhibition of central BZD site binding is greater than 80% in the presence of 1000 nM of the compound)” and the “Percentage of potentiation alpha1” value [3] was “+ (percentage of potentiation is greater than or equal to 10% but less than 50% in the presence of 100 nM of the compound)”.

In the case of `Clc1ccc(-c2nc3ccc(Cl)cn3c2Cn2ccnn2)cc1` [Compound 19, 3-((1H-1,2,3-triazol-1-yl)methyl)-6-chloro-2-(4-chlorophenyl)H-imidazo[1,2-a]pyridine], the “Percentage of potentiation alpha2” value [1] is reported as “+ (percentage of potentiation is greater than or equal to 10% but less than 50% in the presence of 100 nM of the compound)”, the “% Inhibition at 1000 nM for CBZD” value [2] is reported as “++ (percentage of inhibition of central BZD site binding is greater than 80% in the presence of 1000 nM of the compound)” and the “Percentage of potentiation alpha1” value [3] is reported as “+ (percentage of potentiation is greater than or equal to 10% but less than 50% in the presence of 100 nM of the compound)”.

For `Cc1noc(-c2nccn2Cc2c(-c3ccc(Cl)cc3)nc3ccccn23)n1` [Compound 27, 2-(4-chlorophenyl)-3-((2-(3-methyl-1,2,4-oxadiazol-5-yl)-1H-imidazol-1-yl)methyl)H-imidazo[1,2-a]pyridine], the “Percentage of potentiation alpha2” value [1] was “+ (percentage of potentiation is greater than or equal to 10% but less than 50% in the presence of 100 nM of the compound)”, the “% Inhibition at 1000 nM for CBZD” value [2] was “++ (percentage of inhibition of central BZD site binding is greater than 80% in the presence of 1000 nM of the compound)” and the “Percentage of potentiation alpha1” value [3] was “+ (percentage of potentiation is greater than or equal to 10% but less than 50% in the presence of 100 nM of the compound)”.

`CCOC(=O)c1cc(C)n(Cc2c(-c3ccc(Cl)cc3)nc3ccccn23)n1` [Compound 29, ethyl 1-((2-(4-chlorophenyl)imidazo[1,2-a]pyridin-3-yl)methyl)-5-methyl-1H-pyrazole-3-carboxylate] was tested, and the activation at 0.1 µM [1] was ≥ 50%, the “% Inhibition at 1000 nM for CBZD” value [2] was “++ (percentage of inhibition of central BZD site binding is greater than 80% in the presence of 1000 nM of the compound)” and the activation at 0.1 µM [3] was ≥ 50%.

With `Clc1ccc(-c2nc3ccccn3c2Cn2nc3ccccc3n2)cc1` [Compound 43, 2-((2-(4-chlorophenyl)H-imidazo[1,2-a]pyridin-3-yl)methyl)-2H-benzo[d][1,2,3]triazole] the “Percentage of potentiation alpha2” value [1] was “+ (percentage of potentiation is greater than or equal to 10% but less than 50% in the presence of 100 nM of the compound)”, the “% Inhibition at 1000 nM for CBZD” value [2] was “++ (percentage of inhibition of central BZD site binding is greater than 80% in the presence of 1000 nM of the compound)” and the “Percentage of potentiation alpha1” value [3] was 0 (percentage of potentiation is between about 10% to about −10%).

In the case of `COC(=O)c1ncnn1Cc1c(-c2ccccc2)nc2ccc(Cl)cn12` [Compound 44, 2-(6-Chloro-2-phenyl-imidazo[1,2-a]pyridin-3-ylmethyl)-2H-[1,2,4]triazole-3-carboxylic acid methyl ester], the activation at 0.1 µM [1] is reported as -10 to 10%, the “% Inhibition at 1000 nM for CBZD” value [2] is reported as “++ (percentage of inhibition of central BZD site binding is greater than 80% in the presence of 1000 nM of the compound)” and the activation at 0.1 µM [3] is reported as -10 to 10%.

With `Clc1ccc2nc(-c3ccccc3)c(Cn3nnc4ccccc43)n2c1` [Compound 46, 1-((6-chloro-2-phenylH-imidazo[1,2-a]pyridin-3-yl)methyl)-1H-benzo[d][1,2,3]triazole] the “Percentage of potentiation alpha2” value [1] was 0 (percentage of potentiation is between about 10% to about −10%), the “% Inhibition at 1000 nM for CBZD” value [2] was “++ (percentage of inhibition of central BZD site binding is greater than 80% in the presence of 1000 nM of the compound)” and the “Percentage of potentiation alpha1” value [3] was “+ (percentage of potentiation is greater than or equal to 10% but less than 50% in the presence of 100 nM of the compound)”.

For `Clc1ccc2nc(-c3ccccc3)c(Cn3nc4ccccc4n3)n2c1` [Compound 47, 2-((6-chloro-2-phenylH-imidazo[1,2-a]pyridin-3-yl)methyl)-2H-benzo[d][1,2,3]triazole], the “Percentage of potentiation alpha2” value [1] was 0 (percentage of potentiation is between about 10% to about −10%), the “% Inhibition at 1000 nM for CBZD” value [2] was “+ (percentage of inhibition of central BZD site binding is greater than 50% but less than 80% in the presence of 1000 nM of the compound)” and the “Percentage of potentiation alpha1” value [3] was 0 (percentage of potentiation is between about 10% to about −10%).

For `Fc1ccc(-c2nc3ccccn3c2Cn2nccn2)cc1` [Compound 49, 3-((2H-1,2,3-triazol-2-yl)methyl)-2-(4-fluorophenyl)H-imidazo[1,2-a]pyridine], the “Percentage of potentiation alpha2” value [1] was “+ (percentage of potentiation is greater than or equal to 10% but less than 50% in the presence of 100 nM of the compound)”, the “% Inhibition at 1000 nM for CBZD” value [2] was “++ (percentage of inhibition of central BZD site binding is greater than 80% in the presence of 1000 nM of the compound)” and the “Percentage of potentiation alpha1” value [3] was 0 (percentage of potentiation is between about 10% to about −10%).

`CN(O)C(=O)c1nc(Cc2c(-c3ccc(F)cc3)nc3ccc(F)cn23)no1` [Compound 225, 3-((6-fluoro-2-(4-fluorophenyl)imidazo-[1,2-a]pyridin-3-yl)methyl)-N-hydroxy-N-methyl-1,2,4-oxadiazole-5-carboxamide] was tested, and the activation at 0.1 µM [1] was 10 to 50% and the activation at 0.1 µM [3] was ≤ -10%.
